These results are taken from patent US11142515B2, “Pyrazolyl-ureas as kinase inhibitors” (RESPIVERT LIMITED, priority 2014, dated 2021).

Molecules are shown by their SMILES. pIC50: −log10 of the molar value.

This assay addresses T1, p38MAPKγ (MAPK12) (Homo sapiens, UniProt P53778).
T1 construct: purchased Life Technologies
T1 sequence (P53778 1-367): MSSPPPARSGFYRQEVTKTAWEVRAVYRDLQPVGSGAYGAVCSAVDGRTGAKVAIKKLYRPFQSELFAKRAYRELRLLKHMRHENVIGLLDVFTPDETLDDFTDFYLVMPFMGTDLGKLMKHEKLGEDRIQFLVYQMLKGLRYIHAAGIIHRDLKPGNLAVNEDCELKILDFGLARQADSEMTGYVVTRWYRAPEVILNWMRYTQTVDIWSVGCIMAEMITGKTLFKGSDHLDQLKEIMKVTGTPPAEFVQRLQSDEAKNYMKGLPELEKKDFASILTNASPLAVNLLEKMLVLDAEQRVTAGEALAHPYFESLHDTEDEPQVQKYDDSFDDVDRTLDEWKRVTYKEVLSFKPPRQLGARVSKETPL
Kind of assay: p38 MAPKγ enzyme inhibition (Z-LYTE FRET). Type of assay: biochemical. The settings on record: Table 2B, unit inferred; read-out: p38 MAPKγ (Enzyme Profile). The method, then: The enzyme inhibitory activities of compounds disclosed herein were determined by FRET using synthetic peptides labelled with both donor and acceptor fluorophores (Z-LYTE, Life Technologies, Paisley, UK).
The inhibitory activities of compounds of the invention against p38MAPKγ (MAPK12: Life Technologies), were evaluated by determining the level of activation/phosphorylation of the target peptide. The enzyme (800 ng/mL, 2.5 μL) was incubated with the test compound (2.5 μL at either 40 μg/mL, 12 μg/mL, 4 μg/mL, 1.2 μg/mL, 0.4 μg/mL, 0.12 μg/mL, 0.04 μg/mL, 0.012 μg/mL, 0.004 μg/mL or 0.0012 μg/mL) for 2 h at RT. The FRET peptides (8 μM, 2.5 μL), and appropriate ATP solution (2.5 μL, 400 μM) were then added to the enzymes/compound mixtures and incubated for 1 h at RT. Development reagent (protease, 5 μL) was added for 1 h prior to detection in a fluorescence microplate reader (EnVision, Perkin Elmer).
In all cases, the site-specific protease cleaves non-phosphorylated peptide only and eliminates the FRET signal. Phosphorylation levels of each reaction were calculated using the ratio of coumarin emission (donor) over fluorescein emission (acceptor), for which low ratios indicate high phosphorylation and high ratios indicate low phosphorylation levels.
On to `Cc1ccc(-n2nc(C(C)(C)C)cc2NC(=O)Nc2ccc(OCc3ccnc(Nc4cnc(C(=O)NC5CN(C)C5)cn4)c3)c3ccccc23)cc1` [Example 89], for which the pIC50 is 7.38.
Regarding `CCN1CCN(C(=O)c2cnc(Nc3cc(COc4ccc(NC(=O)Nc5cc(C(C)(C)C)nn5-c5cccc(COC)c5)c5ccccc45)ccn3)cn2)CC1` [Example 283, 1-(3-(tert-butyl)-1-(3-(methoxymethyl)phenyl)-1H-pyrazol-5-yl)-3-(4-((2-((5-(4-ethylpiperazine-1-carbonyl)pyrazin-2-yl)amino)pyridin-4-yl)methoxy)naphthalen-1-yl)urea], the pIC50 is 7.46.
As for `CCc1cncc(Nc2cc(COc3ccc(NC(=O)Nc4cc(C(C)(C)C)nn4-c4cc(C)cc(F)c4)c4ccccc34)ccn2)n1` [Example 254, 1-(3-(tert-butyl)-1-(3-fluoro-5-methylphenyl)-1H-pyrazol-5-yl)-3-(4-((2-((6-ethyl-pyrazin-2-yl)amino)pyridin-4-yl)methoxy)naphthalen-1-yl)urea], the pIC50 is 5.71.
Under `CCN1CCN(C(=O)c2cnc(Nc3cc(COc4ccc(NC(=O)Nc5cc(C(C)(C)C)nn5-c5ccc(C)cc5)c5ccccc45)ccn3)cn2)CC1` [Example 271, 1-(3-(tert-butyl)-1-(p-tolyl)-1H-pyrazol-5-yl)-3-(4-((2-((5-(4-ethylpiperazine-1-carbonyl)pyrazin-2-yl)amino)pyridin-4-yl)methoxy)naphthalen-1-yl)urea] stands 6.97.
Regarding `COC1CCN(CCNC(=O)c2cnc(Nc3cc(COc4ccc(NC(=O)Nc5cc(C(C)(C)C)nn5-c5ccc(C)cc5)c5ccccc45)ccn3)cn2)CC1` [Example 92], the pIC50 is 6.93.
For `COC(=O)N1CCN(CCNC(=O)c2cnc(Nc3cc(COc4ccc(NC(=O)Nc5cc(C(C)(C)C)nn5-c5ccc(C)cc5)c5ccccc45)ccn3)cn2)CC1` [Example 91], the pIC50 was 6.75.
On to `COCc1cccc(-n2nc(C(C)(C)C)cc2NC(=O)Nc2ccc(OCc3ccnc(Nc4cnc(C(=O)N5CCC(N(C)C)CC5)cn4)c3)c3ccccc23)c1` [Example 284, 1-(3-(tert-butyl)-1-(3-(methoxymethyl)phenyl)-1H-pyrazol-5-yl)-3-(4-((2-((5-(4-(dimethylamino)piperidine-1-carbonyl)pyrazin-2-yl)amino)pyridin-4-yl)methoxy)naphthalen-1-yl)urea], for which the pIC50 is 8.77.
As to `Cc1ccc(-n2nc(C(C)(C)C)cc2NC(=O)Nc2ccc(OCc3ccnc(Nc4cnc(C(=O)N5CCN6CCC[C@H]6C5)cn4)c3)c3ccccc23)cc1` [Example 275, (S)-1-(3-(tert-butyl)-1-(p-tolyl)-1H-pyrazol-5-yl)-3-(4-((2-((5-(octahydropyrrolo [1,2-a]pyrazine-2-carbonyl)pyrazin-2-yl)amino)pyridin-4-yl)methoxy)naphthalen-1-yl)urea], the pIC50 is 6.89.
In the case of `Cc1ccc(-n2nc(C(C)(C)C)cc2NC(=O)Nc2ccc(OCc3ccnc(Nc4cncc(CN5CCOCC5)n4)c3)c3ccccc23)cc1` [Example 285, 1-(3-(tert-butyl)-1-(p-tolyl)-1H-pyrazol-5-yl)-3-(4-((2-((6-(morpholinomethyl)pyrazin-2-yl)amino)pyridin-4-yl)methoxy)naphthalen-1-yl)urea], the pIC50 was 7.08.
As to `Cc1ccc(-n2nc(C(C)(C)C)cc2NC(=O)Nc2ccc(OCc3ccnc(Nc4cnc(C(=O)NC(C)(C)CN5CCOCC5)cn4)c3)c3ccccc23)cc1` [Example 287, 5-((4-(((4-(3-(3-(tert-butyl)-1-(p-tolyl)-1H-pyrazol-5-yl)ureido)naphthalen-1-yl)oxy)methyl)pyridin-2-yl)amino)-N-(2-methyl-1-morpholinopropan-2-yl) pyrazine-2-carboxamide], the pIC50 was less than 4.89.
Under `Cc1ccc(-n2nc(C(C)(C)C)cc2NC(=O)Nc2ccc(OCc3ccnc(Nc4cnc(C(=O)NCCN5CCC(F)CC5)cn4)c3)c3ccccc23)cc1` [Example 96] stands 6.57.
With `Cc1ccc(-n2nc(C(C)(C)C)cc2NC(=O)Nc2ccc(OCc3ccnc(Nc4cnc(C(=O)NCCN5CC[C@@H](O)C5)cn4)c3)c3ccccc23)cc1` [Example 97], the pIC50 is 7.47.
For `Cc1ccc(-n2nc(C(C)(C)C)cc2NC(=O)Nc2ccc(OCc3ccnc(Nc4cnc(C(=O)NCC(C)(C)N5CCOCC5)cn4)c3)c3ccccc23)cc1` [Example 281, 5-((4-(((4-(3-(3-(tert-butyl)-1-(p-tolyl)-1H-pyrazol-5-yl)ureido)naphthalen-1-yl)oxy)methyl)pyridin-2-yl)amino)-N-(2-methyl-2-morpholinopropyl)pyrazine-2-carboxamide], the pIC50 is 6.54.
For `Cc1ccc(-n2nc(C(C)(C)C)cc2NC(=O)Nc2ccc(OCc3ccnc(Nc4cnc(C(=O)NCCN5CCC[C@@H](O)C5)cn4)c3)c3ccccc23)cc1` [Example 95], the pIC50 is 7.26.
As for `COCc1cccc(-n2nc(C(C)(C)C)cc2NC(=O)Nc2ccc(OCc3ccnc(Nc4cnc(C(=O)NCC5CCN(C)CC5)cn4)c3)c3ccccc23)c1` [Example 99], the pIC50 was 7.96.
As to `Cc1ccc(-n2nc(C(C)(C)C)cc2NC(=O)Nc2ccc(OCc3ccnc(Nc4cnc(C(=O)N5CCN(CCN(C)C)CC5)cn4)c3)c3ccccc23)cc1` [Example 273, 1-(3-(tert-butyl)-1-(p-tolyl)-1H-pyrazol-5-yl)-3-(4-((2-((5-(4-(2-(dimethylamino)ethyl)piperazine-1-carbonyl)pyrazin-2-yl)amino)pyridin-4-yl)methoxy)naphthalen-1-yl)urea], the pIC50 is 8.33.
`Cc1ccc(-n2nc(C(C)(C)C)cc2NC(=O)Nc2ccc(OCc3ccnc(Nc4cnc(C(=O)NCCN5CCC(F)(F)CC5)cn4)c3)c3ccccc23)cc1` [Example 94]: the pIC50 was 6.11.
As to `CC(C)(C)c1cc(NC(=O)Nc2ccc(OCc3ccnc(Nc4cnc(CO)cn4)c3)c3ccccc23)n(-c2cccc(F)c2)n1` [Example 253, 1-(3-(tert-butyl)-1-(3-fluoro-phenyl)-1H-pyrazol-5-yl)-3-(4-((2-((5-(hydroxymethyl)pyrazin-2-yl)amino)pyridin-4-yl)methoxy)naphthalen-1-yl)urea], the pIC50 is 7.12.
As for `Cc1ccc(-n2nc(C(C)(C)C)cc2NC(=O)Nc2ccc(OCc3ccnc(Nc4cnc(C(=O)NCCN5CCCC5)cn4)c3)c3ccccc23)cc1` [Example 86], the figure is 7.72; as for `COc1ccc(-n2nc(C(C)(C)C)cc2NC(=O)Nc2ccc(OCc3ccnc(Nc4cnc(C)c(C)n4)c3)c3ccccc23)cc1F` [Example 252, 1-(3-(tert-butyl)-1-(3-fluoro-4-methoxyphenyl)-1H-pyrazol-5-yl)-3-(4-((2-((5,6-dimethylpyrazin-2-yl)amino)pyridin-4-yl)methoxy)naphthalen-1-yl)urea], less than 4.82; as for `COCc1cccc(-n2nc(C(C)(C)C)cc2NC(=O)Nc2ccc(OCc3ccnc(Nc4cnc(CN5CCN(C)CC5)cn4)c3)c3ccccc23)c1` [Example 276, 1-(3-(tert-butyl)-1-(3-(methoxymethyl)phenyl)-1H-pyrazol-5-yl)-3-(4-((2-((5-((4-methylpiperazin-1-yl)methyl)pyrazin-2-yl)amino)pyridin-4-yl)methoxy)naphthalen-1-yl)urea], 8.08.
Under `Cc1ccc(-n2nc(C(C)(C)C)cc2NC(=O)Nc2ccc(OCc3ccnc(Nc4cnc(C(=O)N[C@H]5CCN(C)C5)cn4)c3)c3ccccc23)cc1` [Example 83] stands 7.41; under `Cc1ccc(-n2nc(C(C)(C)C)cc2NC(=O)Nc2ccc(OCc3ccnc(Nc4cncc(C5CCN(C)CC5)n4)c3)c3ccccc23)cc1` [Example 286, 1-(3-(tert-butyl)-1-(p-tolyl)-1H-pyrazol-5-yl)-3-(4-((2-((6-(1-methylpiperidin-4-yl)pyrazin-2-yl)amino)pyridin-4-yl)methoxy)naphthalen-1-yl)urea], 8.24.
Turning to `Cc1ccc(-n2nc(C(C)(C)C)cc2NC(=O)Nc2ccc(OCc3ccnc(Nc4cnc(C(=O)N5CCC(N(C)C)CC5)cn4)c3)c3ccccc23)cc1` [Example 272], the pIC50 was 8.40.
For `Cc1ccc(-n2nc(C(C)(C)C)cc2NC(=O)Nc2ccc(OCc3ccnc(Nc4cnc(C(=O)NC[C@H](O)CN5CCOCC5)cn4)c3)c3ccccc23)cc1` [Example 87], the pIC50 was 7.20.
Consider `Cc1ccc(-n2nc(C(C)(C)C)cc2NC(=O)Nc2ccc(OCc3ccnc(Nc4cnc(C(=O)NCCCN5CCOCC5)cn4)c3)c3ccccc23)cc1` [Example 279, 5-((4-(((4-(3-(3-(tert-butyl)-1-(p-tolyl)-1H-pyrazol-5-yl)ureido)naphthalen-1-yl)oxy)methyl)pyridin-2-yl)amino)-N-(3-morpholino-propyl)pyrazine-2-carboxamide], for which the pIC50 is 6.94.
Consider `CSc1cccc(-n2nc(C(C)(C)C)cc2NC(=O)Nc2ccc(OCc3ccnc(Nc4cnccn4)c3)c3ccccc23)c1` [Example 77], for which the pIC50 was 6.97.
